Values of other authors in patent publication US9011933B2, “Therapeutic methods and pharmaceutical compositions for treating warts with tellurium compounds” (Biomas Ltd., priority 2004, dated 2015).
Where two headings read alike, the source gives them in different places.

What was measured:
[1] = rats; intravenous and intramuscular dosage
human viruses = settings: studies conducted heretofore

Cl[TeH]1(Cl)(Cl)OCCO1 [AS101, ammonium trichloro(dioxyethylene-O,O′)tellurate]
LD50 relative to the immunology effective dose [1]: 500-1000 folds
efficacy as an anti-viral agent against human viruses (human viruses): insufficient

N#N [liquid nitrogen]
patients remaining clear of warts (warts; after a median of 19 months): 57%
initial cure, patients (warts; liquid nitrogen treatment of warts): 52-83%

O=C(O)c1ccccc1O [salicylic acid]
cure rate (warts; topical standard treatment, after 4 weeks, at best): ≤ 40%

O=C(O)C(Cl)(Cl)Cl [trichloro acetic acid]
cure rate (warts; typical result of treatment): 64-81%

bleomycine
success rate (warts; intralesional therapy): ~70%
